In EP0449699A2, “Pyrazole derivatives as angiotensin II-receptor antagonists, process for their preparation and pharmaceutical compositions containing them” (LABORATOIRES UPSA, priority 1990, dated 1991):

Tested on: récepteurs surrénaliens de l'angiotensine II
Assay: Displacement of radioligand [125I]-SIAII specifically bound to adrenal angiotensin II receptors (rat adrenal homogenate)
Format: binding
Details: 60 min, 25°C
Description: L'affinité des produits des exemples pour les récepteurs de l'angiotensine II est évaluée par technique de déplacement d'un radioligand spécifiquement fixé sur les récepteurs surrénaliens de l'angiotensine Il, chez le rat.
Une aliquote d'un homogénat de surrénales de rat incube en présence d'une concentration unique de [^125I]-SIAII (Sar^1, Tyr^4, Ile^8 - angiotensine II), antagoniste des récepteurs de l'angiotensine II, et de deux concentrations d'agents compétiteurs (10^-5 M, 10-^7 M) durant 60 min à 25°C.
La réaction est achevée par ajout de tampon, puis rapide filtration à travers des filtres de papier de verre. La liaison non spécifique est déterminée en présence d'angiotensine Il.
Les résultats sont exprimés, pour les concentrations testées, en pourcentage de déplacement du radioligand spécifiquement fixé sur les récepteurs surrénaliens de l'angiotensine Il.

| Compound | % de déplacement du ligand marqué (competitor 1E-5 M, 10 µM) | % de déplacement du ligand marqué (competitor 1E-7 M, 0.1 µM) |
| --- | --- | --- |
| CCCc1nn(C)c(OCC(=O)OCC)c1Cc1ccc(-c2ccsc2-c2nnn[nH]2)cc1 [Exemple 141, [Méthyl-1 n-propyl-3 [[(tétrazolyl-5)-2 thiényl-3]-4 benzyl]-4 pyrazol-yl-5] oxy acétate d'éthyle] | 64% | 9% |
| CCCc1nn(CC(F)(F)F)c(OCCO)c1Cc1ccc(-c2ccccc2-c2nn[nH]n2)cc1 [Exemple 92, [(trifluoro-2,2,2 éthyl)-1 n-Propyl-3 [(tétrazolyl-5)-2'biphényl-yl-4]méthyl-4 pyrazol-yl-5] oxy-2 éthanol] | 75% | 70% |
| CCCc1nn(C)c(OCC(=O)OCC)c1Cc1ccc(-c2ccccc2-c2nnn[nH]2)cc1 [Exemple 70, [Méthyl-1 n-Propyl-3 [(tétrazolyl-5)-2' biphényl-yl-4]méthyl-4 pyrazol-yl-5] oxy acétate d'éthyle] | 67% | 49% |
| CCCc1nn(C)c(OCCO)c1Cc1ccc(-c2ccsc2C(=O)O)cc1 [Exemple 145, [Méthyl-1 n-Propyl-3 [(carboxy-2 thiényl-3)-4 benzyl]-4 pyrazol-yl-5] oxy-2 éthanol] | 53% | 0% |
| CCCc1n[nH]c(COC)c1Cc1ccc(NC(=O)c2ccccc2S(=O)(=O)O)cc1 [Exemple 108, Acide [(n-propyl-3 méthoxy méthyl-5 pyrazol-yl-4)méthylphényl-yl-4] amino carbonyl-2 benzène sulfonique] | 86% | 19% |
| CCCc1nn(CC(F)(F)F)c(OCC(=O)OC)c1Cc1ccc(NC(=O)c2ccccc2C(=O)O)cc1 [Exemple 33, [(trifluoro-2,2,2 éthyl)-1 n-propyl-3 ((carboxy-2 benzoyl amino)-4 benzyl)-4 pyrazol-yl-5] oxyacétatede méthyle] | 94% | 26% |
| CCCc1nn(C)c(O)c1Cc1ccc(-c2ccccc2-c2nnn[nH]2)cc1 [Exemple 71, Méthyl-1 n-Propyl-3 hydroxy-5 [(tétrazolyl-5)-2' biphényl-yl-4] méthyl-4 pyrazole] | 58% | 24% |
| CCCc1n[nH]c(CO)c1Cc1ccc(NC(=O)c2ccccc2S(=O)(=O)O)cc1 [Exemple 116, Acide ((n-Propyl-3 hydroxy méthyl-5 pyrazol-yl-4)méthylphényl-yl-4] amino carbonyl-2 benzène sulfonique] | 82% | 12% |
| CCCCc1nn(CC(F)(F)F)c(OCC(=O)OCC)c1Cc1ccc(-c2ccccc2-c2nn[nH]n2)cc1 [Exemple 78, [(trifluoro-2,2,2éthyl)-1 n-Butyl-3 [(tétrazolyl-5)-2' biphényl-yl-4]méthyl-4 pyrazol-yl-5] oxy acétate d'éthyle] | 73% | 58% |
| CCCc1nn(C)c(OCC(=O)N2CCN(c3ccccc3OC)CC2)c1Cc1ccc(NC(=O)c2ccccc2S(=O)(=O)O)cc1 [Exemple 66, (Méthoxy-2 phényl)-1 [[méthyl-1 n-propyl-3 [(sulfo-2 benzoyl amino)-4 benzyl]-4 pyrazol-yl-5]oxyacétyl]-4 pipérazine] | 92% | 63% |
| CCCc1nn(C)c(OCC(=O)OCC)c1Cc1ccc(NC(=O)c2ccccc2S(=O)(=O)O)cc1 [Exemple 45, Acide [[Méthyl-1 n-propyl-3 (Ethoxy carbonyl méthyloxy)-5 pyrazol-yl-4]méthylphényl-yl-4] amino carbonyl-2 benzène sulfonlque.] | 92% | 60% |

Second part, the compound after the results:

| % de déplacement du ligand marqué (competitor 1E-5 M, 10 µM) | % de déplacement du ligand marqué (competitor 1E-7 M, 0.1 µM) | Compound |
| --- | --- | --- |
| 80% | 57% | CCCc1nn(C)c(CO)c1Cc1ccc(NC(=O)c2ccccc2S(=O)(=O)O)cc1 [Exemple 115, Acide [(méthyl-1 n-propyl-3 hydroxy méthyl-5 pyrazol-yl-4)méthylphényl-yl-4] amino carbonyl-2 benzène sulfonique] |
| 92% | 39% | CCCCc1nn(C)c(OCC(=O)OCC)c1Cc1ccc(NC(=O)c2ccccc2C(=O)O)cc1 [Exemple 27, [Méthyl-1 n-butyl-3 ((carboxy-2 benzoyl amino)-4 benzyl)-4 pyrazol-yl-5] oxyacétate d'éthyle] |
| 80% | 58% | CCCCc1nn(C)c(OCC(=O)N2CCOCC2)c1Cc1ccc(NC(=O)c2ccccc2S(=O)(=O)O)cc1 [Exemple 48, N-[[Méthyl-1 n-butyl-3 [(sulfo-2 benzoyl amino)-4 benzyl]-4 pyrazol-yl-5]oxyacétyl] morpholine] |
| 85% | 2% | CCCc1nn(CC(=O)OCC)c(O)c1Cc1ccc(NC(=O)c2c(Cl)ccc(Cl)c2C(=O)O)cc1 [Exemple 41, Acide [[éthoxy carbonyl méthyl-1 n-propyl-3 hydroxy-5 pyrazol-yl-4]méthylphényl-yl-4] amino carbonyl-2 dichloro-3,6 benzoïque] |
| 83% | 62% | CCCc1nn(C)c(COC)c1Cc1ccc(NC(=O)c2ccccc2S(=O)(=O)O)cc1 [Exemple 107, Acide [(Méthyl-1 n-propyl-3 méthoxy méthyl-5 pyrazol-yl-4)méthylphényl-yl-4] amino carbonyl-2 benzène sulfonlque] |
| 83% | 0% | CCCCc1nn(C)c(O)c1Cc1ccc(NC(=O)c2c(Cl)ccc(Cl)c2C(=O)O)cc1 [Exemple 40, Acide [(Méthyl-1 n-butyl-3 hydroxy-5 pyrazolyl-4]méthylphényl-yl-4] amino carbonyl-2 dichloro-3,6 benzoïque] |
